Publication PMC10786919, “Design-rules for stapled peptides with in vivo activity and their application to Mdm2/X antagonists” (Nature Communications, 2024)
Values after ≈ are worked out from the molar mass of the structure shown. Read-outs that look alike come from different tables or passages of the source. Positions of bridges follow the written chain, without caps; N, C: chain ends. Non-standard residues stand in square brackets, D forms with d. Residues, ends and D or L forms follow the SMILES beside them. Lys(N3) = [N-]=[N+]=NCCCC[C@H](N)C(=O)O; R8 = C=CCCCCCC[C@@](C)(N)C(=O)O; Cit = NC(=O)NCCC[C@H](N)C(=O)O; Cba = N[C@@H](CC1CCC1)C(=O)O; S5 = C=CCCC[C@](C)(N)C(=O)O; Dab = NCC[C@H](N)C(=O)O; Aib = CC(C)(N)C(=O)O; Ahx = NCCCCCC(=O)O; βAla = NCCC(=O)O; Sar = CNCC(=O)O

What was measured:
HCT116 cells = assay: Lactate dehydrogenase (LDH) release assay; type: cell-based
Experimental: (§1) HCT116 cells were stably transfected with a p53 responsive β-lactamase reporter and expanded in McCoy’s 5 A Medium with 10% fetal bovine serum (FBS), Blasticidin, and Penicillin/Streptomycin and then transferred to 1.5 ml freezing vials and stored under liquid nitrogen in growth media containing 5% DMSO. […] The cells were then seeded into a 384-well plate at a density of 8000 cells per well. […] The final working concentration of DMSO was 0.5%. Lactate dehydrogenase release was detected using the CytoTox-ONE Homogenous Membrane Integrity Assay Kit (Promega), as per the manufacturer’s instructions. Measurements were carried out using the Tecan plate reader. […] Measurements were taken a minimum of three times (biological replicates) and values are reported as geometric means of the replicates.

[1] = Lactate dehydrogenase (LDH) release assay; type: cell-based
Experimental: as §1

[2] = Solubility assay (kinetic solubility, PBS pH 7); type: physicochemical; details: pH 7, aqueous buffer, kinetic from dmso stock, pH 7, PBS; read-out: Solubility
Experimental: The standard reference solutions were prepared by diluting the 10 mM stock in 10:80:10 solution of acetonitrile:methanol:DMSO to 100 µM.
The solubility value is calculated by the following equation:
Solubility [µM] = (Peak area of sample/ Peak area of standard) (Standard concentration)

[3] = 0% FBS 4Hr, read-out: LDH: Cytotoxicity assay EC50
[4] = 10% FBS 16Hr, read-out: LDH: Cytotoxicity assay EC50

CC(=O)N[C@@H](CCCCN=[N+]=[N-])C(=O)NCCC(=O)N[C@@H](CC(C)C)C(=O)N[C@H](C(=O)N[C@@H](Cc1ccccc1)C(=O)N[C@]1(C)CCCCCCC=CCCC[C@@](C)(C(=O)N[C@@H](C)C(=O)N(C)CC(=O)N(C)CC(=O)N(C)CC(=O)N(C)CC(=O)N(C)CC(N)=O)NC(=O)[C@H](CC2CCC2)NC(=O)[C@H](CCC(N)=O)NC(=O)[C@H](C)NC(=O)[C@H](Cc2c[nH]c3ccccc23)NC(=O)[C@H](Cc2ccc(O)cc2)NC(=O)[C@H](CCC(=O)O)NC1=O)[C@@H](C)O [MP-443] (Ac-[Lys(N3)][βAla]LTF[R8]EYWAQ[Cba][S5]A[Sar][Sar][Sar][Sar][Sar]-NH2; staple 6-13)
LDH: Cytotoxicity assay % Effect (HCT116 cells; 0% FBS 4Hr): 8.392% | LDH: Cytotoxicity assay % Effect (HCT116 cells; 10% FBS 16Hr): 2.311% | EC50 [1, 3]: > 50.7 µM | EC50 [1, 4]: > 50.7 µM | solubility kinetic [2]: 180 µM (≈ 390 µg/mL)

CC(=O)N[C@@H](CCCCN=[N+]=[N-])C(=O)N[C@H](C(=O)N[C@@H](Cc1ccccc1)C(=O)N[C@]1(C)CCCCC#CC#CCCC[C@@](C)(C(=O)N[C@@H](CCC(=O)O)C(=O)N[C@@H](C)C(=O)N[C@@H](Cc2ccccc2)C(=O)N[C@@H](C)C(=O)N[C@@H](C)C(=O)N[C@@H](Cc2ccccc2)C(N)=O)NC(=O)[C@H](CC2CCC2)NC(=O)[C@H](CCC(N)=O)NC(=O)[C@H](C)NC(=O)[C@H](Cc2c[nH]c3ccccc23)NC(=O)[C@H](Cc2ccc(O)cc2)NC(=O)[C@H](CCC(=O)O)NC1=O)[C@@H](C)O [MP-444, Ac-K(N3)-TF(X)EYWAQ(Cba)(X)EAFAAF-NH2]
LDH: Cytotoxicity assay % Effect (HCT116 cells; 0% FBS 4Hr): 17.89% | LDH: Cytotoxicity assay % Effect (HCT116 cells; 10% FBS 16Hr): 4.968% | EC50 [1, 3]: > 50.7 µM | EC50 [1, 4]: > 50.7 µM | solubility kinetic [2]: 167 µM (≈ 365 µg/mL)

CC(=O)N[C@@H](CCCCN=[N+]=[N-])C(=O)NCCC(=O)N[C@@H](CC(C)C)C(=O)N[C@H](C(=O)N[C@@H](Cc1ccccc1)C(=O)N[C@]1(C)CCCCCCC=CCCC[C@@](C)(C(=O)N[C@@H](CO)C(=O)N[C@@H](C)C(=O)N[C@@H](C)C(N)=O)NC(=O)[C@H](CC2CCC2)NC(=O)[C@H](CCC(N)=O)N(C)C(=O)[C@H](C)NC(=O)[C@H](Cc2c[nH]c3ccccc23)NC(=O)[C@H](Cc2ccc(O)cc2)NC(=O)[C@H](CCC(=O)O)NC1=O)[C@@H](C)O [MP-499]
LDH: Cytotoxicity assay: % Effect (HCT116 cells): 13.75% | EC50 ([1]; LDH: Cytotoxicity assay: EC50): > 50.6 µM

CC(=O)N[C@@H](CCCNC(=N)N)C(=O)NCCCCCC(=O)N[C@@H](CCCCN=[N+]=[N-])C(=O)N[C@@H](CC(C)C)C(=O)N[C@H](C(=O)N[C@@H](Cc1ccccc1)C(=O)N[C@]1(C)CCCCCCC=CCCC[C@@](C)(C(=O)N[C@@H](CO)C(=O)N[C@@H](C)C(=O)N[C@@H](C)C(N)=O)NC(=O)[C@H](CC2CCC2)NC(=O)[C@H](CCC(N)=O)NC(=O)[C@H](C)NC(=O)[C@H](Cc2c[nH]c3ccccc23)NC(=O)[C@H](Cc2ccc(O)cc2)NC(=O)[C@H](CCC(=O)O)NC1=O)[C@@H](C)O [MP-005]
LDH: Cytotoxicity assay: % Effect (HCT116 cells): 39.54% | EC50 ([1]; LDH: Cytotoxicity assay: EC50): > 50 µM

CC(=O)N[C@H](C(=O)N[C@@H](CO)C(=O)N[C@@H](Cc1ccccc1)C(=O)N[C@]1(C)CCCCCCC=CCCC[C@@](C)(C(=O)N[C@@H](CCC(=O)O)C(N)=O)NC(=O)[C@H](CC2CCC2)NC(=O)[C@H](CC(C)C)NC(=O)[C@H](C)NC(=O)[C@H](Cc2c[nH]c3ccccc23)NC(=O)[C@H](Cc2ccc(O)cc2)NC(=O)[C@H](CCC(=O)O)NC1=O)[C@@H](C)O [MP-140] (Ac-TSF[R8]EYWAL[Cba][S5]E-NH2; staple 4-11)
LDH: Cytotoxicity assay % Effect (HCT116 cells): 11.41% | EC50 ([1]; LDH: Cytotoxicity assay EC50): > 50 µM

CC(=O)N[C@@H](CCCCN)C(=O)N[C@@H](CCCCN)C(=O)N[C@H](C(=O)N[C@@H](CO)C(=O)N[C@@H](Cc1ccccc1)C(=O)N[C@]1(C)CCCCCCC=CCCC[C@@](C)(C(=O)N[C@@H](CCC(=O)O)C(N)=O)NC(=O)[C@H](CC2CCC2)NC(=O)[C@H](CC(C)C)NC(=O)[C@H](C)NC(=O)[C@H](Cc2c[nH]c3ccccc23)NC(=O)[C@H](Cc2ccc(O)cc2)NC(=O)[C@H](CCC(=O)O)NC1=O)[C@@H](C)O [MP-157] (Ac-KKTSF[R8]EYWAL[Cba][S5]E-NH2; staple 6-13)
LDH: Cytotoxicity assay % Effect (HCT116 cells): 5.957% | EC50 ([1]; LDH: Cytotoxicity assay EC50): > 50 µM

CC(=O)N[C@@H](CCCCN=[N+]=[N-])C(=O)NCCC(=O)N[C@@H](CC(C)C)C(=O)N[C@H](C(=O)N[C@@H](Cc1ccccc1)C(=O)N[C@]1(C)CCCCCCC=CCCC[C@@](C)(C(=O)N[C@@H](C)C(=O)NC(C)(C)C(=O)NC(C)(C)C(=O)NC(C)(C)C(=O)NC(C)(C)C(=O)NC(C)(C)C(N)=O)NC(=O)[C@H](CC2CCC2)NC(=O)[C@H](CCC(N)=O)NC(=O)[C@H](C)NC(=O)[C@H](Cc2c[nH]c3ccccc23)NC(=O)[C@H](Cc2ccc(O)cc2)NC(=O)[C@H](CCC(=O)O)NC1=O)[C@@H](C)O [MP-413] (Ac-[Lys(N3)][βAla]LTF[R8]EYWAQ[Cba][S5]A[Aib][Aib][Aib][Aib][Aib]-NH2; staple 6-13)
LDH: Cytotoxicity assay % Effect (HCT116 cells; 0% FBS 4Hr): 8.4% | LDH: Cytotoxicity assay % Effect (HCT116 cells; 10% FBS 16Hr): 10.36% | EC50 [1, 3]: > 50.7 µM | EC50 [1, 4]: > 50.7 µM

CC(=O)N[C@@H](CCN)C(=O)N[C@@H](CCN)C(=O)NCCCCCC(=O)N[C@H](C(=O)N[C@@H](CO)C(=O)N[C@@H](Cc1ccccc1)C(=O)N[C@]1(C)CCCCCCC=CCCC[C@@](C)(C(=O)N[C@@H](CCC(=O)O)C(=O)N[C@@H](CC(N)=O)C(=O)N[C@@H](Cc2ccccc2)C(N)=O)NC(=O)[C@H](CC(C)C)NC(=O)[C@H](CC(C)C)NC(=O)[C@H](C)NC(=O)[C@H](Cc2c[nH]c3ccccc23)NC(=O)[C@H](Cc2ccc(O)cc2)NC(=O)[C@H](CCC(=O)O)NC1=O)[C@@H](C)O [MP-664] (Ac-[Dab][Dab][Ahx]TSF[R8]EYWALL[S5]ENF-NH2; staple 7-14)
LDH: Cytotoxicity assay % Effect (HCT116 cells): 4.71% | EC50 ([1]; LDH: Cytotoxicity assay EC50): > 50 µM

CC(=O)N[C@H](C(=O)N[C@@H](CCCNC(N)=O)C(=O)N[C@@H](CCCCN)C(=O)NCCCCCC(=O)N[C@H](C(=O)N[C@@H](CO)C(=O)N[C@@H](Cc1ccccc1)C(=O)N[C@]1(C)CCCCCCC=CCCC[C@@](C)(C(=O)N[C@@H](CCC(=O)O)C(=O)N[C@@H](CC(N)=O)C(=O)N[C@@H](Cc2ccccc2)C(N)=O)NC(=O)[C@H](CC(C)C)NC(=O)[C@H](CC(C)C)NC(=O)[C@H](C)NC(=O)[C@H](Cc2c[nH]c3ccccc23)NC(=O)[C@H](Cc2ccc(O)cc2)NC(=O)[C@H](CCC(=O)O)NC1=O)[C@@H](C)O)C(C)C [MP-668] (Ac-V[Cit]K[Ahx]TSF[R8]EYWALL[S5]ENF-NH2; staple 8-15)
LDH: Cytotoxicity assay % Effect (HCT116 cells): 4.429% | EC50 ([1]; LDH: Cytotoxicity assay EC50): > 50 µM

CC(=O)N[C@@H](CCCCN=[N+]=[N-])C(=O)NCCC(=O)N[C@@H](CC(C)C)C(=O)N[C@H](C(=O)N[C@@H](Cc1ccccc1)C(=O)N[C@]1(C)CCCCCCC=CCCC[C@@](C)(C(=O)N[C@@H](CO)C(=O)N[C@@H](C)C(=O)N[C@@H](C)C(N)=O)NC(=O)[C@H](CC2CCC2)NC(=O)[C@H](CCC(N)=O)NC(=O)[C@H](C)NC(=O)[C@H](Cc2c[nH]c3cc(Cl)ccc23)NC(=O)[C@H](Cc2ccc(CP(=O)(O)O)cc2)NC(=O)[C@H](CCC(=O)O)NC1=O)[C@@H](C)O [MP-891]
LDH: Cytotoxicity assay: % Effect (HCT116 cells; 0% FBS 4Hr): 3.299% | EC50 ([1]; 0% FBS 4Hr, read-out: LDH: Cytotoxicity assay: EC50): > 50.6 µM

CC(=O)N[C@H](C(=O)N[C@@H](CCCNC(N)=O)C(=O)N[C@@H](CC(C)C)C(=O)N[C@H](C(=O)N[C@@H](Cc1ccccc1)C(=O)N[C@]1(C)CCCCCCC=CCCC[C@@](C)(C(=O)N[C@@H](CO)C(=O)N[C@@H](C)C(=O)N[C@@H](C)C(N)=O)NC(=O)[C@H](CC2CCC2)NC(=O)[C@H](CCC(N)=O)NC(=O)[C@H](C)NC(=O)[C@H](Cc2c[nH]c3ccccc23)NC(=O)[C@H](Cc2ccc(O)cc2)NC(=O)[C@H](CCC(=O)O)NC1=O)[C@@H](C)O)C(C)C [MP-669]
LDH: Cytotoxicity assay % Effect (HCT116 cells): 9.923% | EC50 ([1]; LDH: Cytotoxicity assay EC50): > 50 µM
